Source: patent publication US20240325544A1, “CATIONIC LIPID FOR COVALENT MODIFICATION OF PEPTIDES” (PharmalN Corporation, priority 2023, published 2024)
Bridge positions count the residues as written; N and C are the ends. Square brackets hold non-standard residues; d marks the D form. Peptide text beside a SMILES is read from it. * marks the point of attachment. Palmitoyl = CCCCCCCCCCCCCCCC(=O)*; Dap = NC[C@H](N)C(=O)O; AEEA = NCCOCCOCC(=O)O

System: C57BL/6J mice
Assay: Acute exacerbation of idiopathic pulmonary fibrosis (IPF-AE) model, bleomycin + LPS (FIG. 5)
Format: in vivo
Settings: Bleo 1.0 mg/kg IT, LPS 0.025 mg/kg IT; 0.3 mg/kg SC day before, of and after LPS
Description: FIGS. 5A-5E: The effect of cationic alkyl modified CNP derivatives in inflammation status of acute exacerbation of idiopathic pulmonary fibrosis (IPF-AE). Error bars indicate standard error of the mean. Increased inflammatory status in lung, especially increase of neutrophils, MCP1, IL-6, are seen in IPF-AE. Its decrease indicates resolution of IPF-AE. […] After 3 weeks, mice were treated with LPS (0.025 mg/kg IT) and treated SC with SEQ ID NO: 29 or 31 at 0.3 mg/kg (0.1 μmol/kg) the day before, of, and after LPS treatment as shown in the diagram. Additionally, a normal control (NC) group without LPS/Bleo treatment, a Bleo group without LPS treatment, and a Control group without test article treatment were also included. […]
Animal care and treatment: Male C57BL/6J mice (6 weeks-old) were purchased from Kyudo (Saga, Japan) and maintained under a 12-hour light/12-hour dark cycle with free access to water and standard mouse diet (MF diet, Oriental Yeast Co., Ltd. Tokyo, Japan). […] Lung weight/body weight ratio increase is a commonly measured parameter that indicates lung damage. […] The expression of MPO was assessed by Image J (NIH, Bethesda, MD, USA). […] Macrophage chemoattractant protein-1 (MCP1) was measured by using ELISA kit (R&D SYSTEMS, Minneapolis M N). […] The gene expression levels of IL-6 were measured with qRT-PCR-analysis by using cDNA synthesis kit (Qiagen; Venlo, the Netherlands). […]

Compound: CCCCCCCCCCCCCCCC(=O)NCCOCCOCC(=O)NCCOCCOCC(=O)NCCOCCOCC(=O)N[C@@H](CN)C(=O)N[C@@H](CN)C(=O)NCC(=O)N[C@@H](CC(C)C)C(=O)N[C@@H](CO)C(=O)N[C@@H](CCCCN)C(=O)NCC(=O)N[C@H]1CSSC[C@@H](C(=O)O)NC(=O)CNC(=O)[C@H](CC(C)C)NC(=O)CNC(=O)[C@H](CO)NC(=O)[C@H](CCC(N)=O)NC(=O)[C@H](CO)NC(=O)CNC(=O)[C@H]([C@@H](C)CC)NC(=O)[C@H](CCCNC(=N)N)NC(=O)[C@H](CC(=O)O)NC(=O)[C@H](CC(C)C)NC(=O)[C@H](CCCCN)NC(=O)[C@H](CC(C)C)NC(=O)CNC(=O)[C@H](Cc2ccccc2)NC1=O [SEQ ID NO: 31] ({Palmitoyl-AEEA-AEEA-AEEA}-[Dap][Dap]GLSKGCFGLKLDRIGSQSGLGC-OH; disulfide 8-24; C-terminus assumed)
- MCP1 in lung: significant decrease of MCP1
